Consider 20 compounds from patent US10221175B2, “Substituted pyrrolo[3,4-e]indolizines, imidazo[1,2-a]pyrrolo[3,4-e]pyridines, pyrrolo[3,4-e][1,2,4]triazolo[1,5-a]pyridines and pyrrolo[3,4-e][1,2,4]triazolo[4,3-a]pyridines as positive allosteric modulators of muscarinic acetylcholine receptor M1” (Vanderbilt University, priority 2015, dated 2019).

The test concerns the target T1, mAChR M1 (UniProt P11229).
T1 sequence (P11229 1-460): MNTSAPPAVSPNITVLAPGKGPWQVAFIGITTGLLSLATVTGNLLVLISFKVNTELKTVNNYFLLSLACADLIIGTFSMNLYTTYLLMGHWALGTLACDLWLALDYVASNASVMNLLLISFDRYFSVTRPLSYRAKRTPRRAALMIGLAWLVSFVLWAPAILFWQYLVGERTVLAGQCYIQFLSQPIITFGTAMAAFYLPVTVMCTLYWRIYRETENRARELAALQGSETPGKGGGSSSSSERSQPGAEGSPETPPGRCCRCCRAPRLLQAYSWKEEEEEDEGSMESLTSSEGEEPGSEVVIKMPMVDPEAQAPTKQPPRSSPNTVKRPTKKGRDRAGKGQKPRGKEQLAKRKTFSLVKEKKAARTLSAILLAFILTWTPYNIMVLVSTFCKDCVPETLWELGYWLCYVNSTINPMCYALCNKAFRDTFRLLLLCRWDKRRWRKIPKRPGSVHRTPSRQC
Kind of test: mAChR M1 cell-based functional assay (calcium mobilization, potentiation of EC20 acetylcholine response). Conditions: for M1 AChmax (%): maximal response as % of ACh maximum, CHO-K1 cells expressing M1; for EC50: positive allosteric modulator activity, concentration-dependent increase in EC20 acetylcholine response, CHO-K1 cells, >10 μM estimated where no plateau but >20% increase in ACh response. The source says:
Chinese hamster ovary (CHO-K1) cells stably expressing rat (r)M1 were purchased from the American Type Culture Collection and cultured according to their indicated protocol. CHO cells stably expressing human (h)M2, hM3, and hM5 were described previously (Levey, et al., 1991); hM1 and hM4 cDNAs were purchased from Missouri S&T cDNA Resource; rM4 cDNA was provided by T. I. Bonner (National Institutes of Health, Bethesda, Md.). rM2 and rM3 were cloned from a rat brain cDNA library and sequence verified. hM1, rM2, rM3, hM4, and rM4 cDNAs were used to stably transfect CHO-K1 cells purchased from the American Type Culture Collection using Lipofectamine2000. To make stable rM2, hM2, rM3, hM4, and rM4 cell lines for use in calcium mobilization assays, these cells also were stably transfected with a chimeric G-protein (Gqi5) (provided by B. R. Conklin, University of California, San Francisco) using Lipofectamine 2000. rM1, hM1, rM3, hM3, rM5, and hM5 cells were grown in Ham's F-12 medium containing 10% heat-inactivated fetal bovine serum (FBS), 20 mM HEPES, and 50 μg/mL G418 sulfate. rM2-Gqi5, hM2-Gqi5, and hM4-Gqi5 cells were grown in the same medium also containing 500 μg/mL Hygromycin B. Stable rM4-Gqi5 cells were grown in DMEM containing 10% heat-inactivated FBS, 20 mM HEPES, 400 μg/mL G418 sulfate, and 500 μg/mL Hygromycin B.
For high throughput measurement of agonist-evoked increases in intracellular calcium, CHO-K1 cells stably expressing muscarinic receptors were plated in growth medium lacking G418 and hygromycin at 15,000 cells/20 μL/well in Greiner 384-well black-walled, tissue culture (TC)-treated, clear-bottom plates (VWR). Cells were incubated overnight at 37° C. and 5% CO2. The next day, cells were washed using an ELX 405 (BioTek) with four washes (80 μL) of assay buffer then aspirated to 20 μL. Next, 20 μL of 16 μM Fluo-4/acetoxymethyl ester (Invitrogen, Carlsbad, Calif.) prepared as a 2.3 mM stock in DMSO and mixed in a 1:1 ratio with 10% (w/v) Pluronic F-127 and diluted in assay buffer was added to the wells and the cell plates were incubated for 50 min at 37° C. and 5% CO2. Dye was removed by washing with the ELX 405 (four 80 μL washes of assay buffer) then aspirated to 20 μL. Compound master plates were formatted in an 11 point CRC format (1:3 dilutions) in 100% DMSO with a starting concentration of 10 mM using the BRAVO liquid handler (Agilent). Test compound CRCs were then transferred to daughter plates (240 nL) using the Echo acoustic plate reformatter (Labcyte, Sunnyvale, Calif.) and then diluted into assay buffer (40 μL) to a 2× stock using a Thermo Fisher Combi (Thermo Fisher Scientific, Waltham, Mass.).
Calcium flux was measured using the Functional Drug Screening System (FDSS) 6000 (Hamamatsu Corporation, Tokyo, Japan) as an increase in the fluorescent static ratio. Compounds were applied to cells (20 μL, 2×) using the automated system of the FDSS 6000 at 4 s into the 300 s protocol and the data were collected at 1 Hz. At 144 s into the 300s protocol, 10 μL of an EC20 concentration of the muscarinic receptor agonist acetylcholine was added (5×), followed by the addition of 12 μL an EC8O concentration of acetylcholine at the 230 s time point (5×). Agonist activity was analyzed as a concentration-dependent increase in calcium mobilization upon compound addition. Positive allosteric modulator activity was analyzed as a concentration-dependent increase in the EC20 acetylcholine response. Antagonist activity was analyzed as a concentration-dependent decrease in the EC80 acetylcholine response. Concentration-response curves were generated using a four-parameter logistical equation in XLfit curve fitting software (IDBS, Bridgewater, N.J.) for Excel (Microsoft, Redmond, Wash.) or Prism (GraphPad Software, Inc., San Diego, Calif.). […]

As usually defined, the EC50 is the concentration needed to bring the measured effect to its halfway point.

Take `Cn1cc2cc(-c3ccc(F)c(CN4Cc5ccc6nncn6c5C4=O)c3)ccc2n1` [Compound 22]: the “M1 AChmax (%)” value was determined as 35.3% and the EC50 was 1310 nM. In the same order, the values of `Cn1cc2c(-c3ccc(F)c(CN4Cc5ccc6nncn6c5C4=O)c3)cccc2n1` [Compound 23] are 56.4% and 1350 nM. As for `O=C1c2c(ccc3nncn23)CN1Cc1cc(-c2ccc3ncccc3c2)ccc1F` [Compound 25], the EC50 was more than 30000 nM. In the case of `COc1ccc(-c2ccc(F)c(CN3Cc4ccc5nncn5c4C3=O)c2)cn1` [Compound 26], the EC50 is more than 30000 nM.

As to `Cn1cc(-c2ccc(CN3Cc4ccc5nccn5c4C3=O)c(F)c2)cn1` [Compound 27], the “M1 AChmax (%)” value amounted to 70.1% and the EC50 is 2260 nM. The like results for `Cn1cc(-c2cc(F)c(CN3Cc4ccc5nccn5c4C3=O)c(F)c2)cn1` [Compound 28, 2-(2,6-difluoro-4-(1-methyl-1H-pyrazol-4-yl)benzyl)-2,3-dihydro-1H-imidazo[1,2-a]pyrrolo[3,4-e]pyridin-1-one] were, in that order, 67.7% and 2370 nM. For the compound `Cc1cn2c3c(ccc2n1)CN(Cc1c(F)cc(-c2cnn(C)c2)cc1F)C3=O` [Compound 29], the EC50 was more than 30000 nM.

On to `Cn1cc(-c2ccc(CN3Cc4ccc5ncnn5c4C3=O)c(F)c2)cn1` [Compound 30], for which the “M1 AChmax (%)” value is recorded as 85.9% and the EC50 is 677 nM.

Regarding `Cn1cc(-c2cc(F)c(CN3Cc4ccc5ncnn5c4C3=O)c(F)c2)cn1` [Compound 31, 7-(2,6-difluoro-4-(1-methyl-1H-pyrazol-4-yl)benzyl)-6,7-dihydro-8H-pyrrolo[3,4-e][1,2,4]triazolo[1,5-a]pyridin-8-one], the “M1 AChmax (%)” value was 85.3% and the EC50 was 1630 nM. Turning to `Cn1cc2c(-c3cc(F)c(CN4Cc5ccc6nccn6c5C4=O)c(F)c3)cccc2n1` [Compound 32], the “M1 AChmax (%)” value is on record as 72% and the EC50 is 1400 nM.

With `Cn1cc2c(-c3ccc(CN4Cc5ccc6nccn6c5C4=O)c(F)c3)cccc2n1` [Compound 33], the “M1 AChmax (%)” value stood at 65% and the EC50 is 2200 nM. The like results for `Cn1cc2cc(-c3ccc(CN4Cc5ccc6nccn6c5C4=O)c(F)c3)ccc2n1` [Compound 34] were, in that order, 62% and 3900 nM. On to `Cn1cc2cc(-c3cc(F)c(CN4Cc5ccc6nccn6c5C4=O)c(F)c3)ccc2n1` [Compound 35], for which the “M1 AChmax (%)” value is given as 42%. On to `Cc1ccc(CN2Cc3ccc4nccn4c3C2=O)cn1` [Compound 36], for which the “M1 AChmax (%)” value is 25% and the half-maximal effective concentration (EC50) is more than 10000 nM. In the same order, the values of `O=C1c2c(ccc3nccn23)CN1Cc1ccc(-n2ccnn2)nc1` [Compound 37] are 26% and more than 10000 nM. The like results for `O=C1c2c(ccc3nccn23)CN1Cc1ccc(N2CCOCC2)nc1` [Compound 38] were, in that order, 26% and more than 10000 nM. Consider `O=C1c2c(ccc3nccn23)CN1Cc1c(F)cc(-c2ccc3ncccc3c2)cc1F` [Compound 39], for which the “M1 AChmax (%)” value was found to be 28%.

For the compound `O=C1c2c(ccc3nccn23)CN1Cc1ccc(-n2cccn2)cc1F` [Compound 40], the “M1 AChmax (%)” value was determined as 26% and the EC50 is more than 10000 nM. As for `CNC(=O)c1ccc(CN2Cc3ccc4nccn4c3C2=O)cc1` [Compound 41], the “M1 AChmax (%)” value is 38%.

For the compound `O=C1c2c(ccc3nccn23)CN1Cc1ccc(-n2nccn2)cc1` [Compound 42], the “M1 AChmax (%)” value was found to be 35% and the half-maximal effective concentration (EC50) was more than 10000 nM.
